In patent publication US11332452B2, “Pesticidal compositions and methods” (priority 2019, dated 2022):

Legend:
Assay type in all cases: in vivo
[1] = system: Beet Armyworm (Spodoptera exigua, LAPHEG); experiment: Insecticidal test for beet armyworm (BAW), 128-well diet tray assay; conditions: 168 h, 50 μg/cm^2 of test compound on artificial diet, second instar larvae, 25° C., five to seven days, average of eight wells, read-out: BAW % Control (or Mortality) rating
Procedure: Insecticidal Test for Beet Armyworm (Spodoptera exigua, LAPHEG) (“BAW”)
(§1) Bioassays on beet armyworm (BAW; Spodoptera exigua: Lepidoptera) are conducted using a 128-well diet tray assay. One to five second instar BAW larvae are placed in each well (3 mL) of the diet tray that had been previously filled with 1 mL of artificial diet to which 50 μg/cm^2 of the test compound (dissolved in 50 μL of 90:10 acetone-water mixture) had been applied (to each of eight wells) and then allowed to dry. Trays are covered with a clear self-adhesive cover, vented to allow gas exchange, and held at 25° C., 14:10 light-dark for five to seven days. Percent mortality is recorded for the larvae in each well; activity in the eight wells is then averaged.

[2] = system: Yellow Fever Mosquito (Aedes aegypti, AEDSAE); experiment: Insecticidal test for yellow fever mosquito (YFM), 96-well plate larval assay; conditions: from 4000 ppm DMSO master solution, diluted; about 1 day-old larvae; room temperature; scored after 3 days
Procedure: Insecticidal Test for Yellow Fever Mosquito (Aedes aegypti, AEDSAE) (“YFM”)
Master plates containing 400 μg of a molecule dissolved in 100 μL of dimethyl sulfoxide (DMSO) (equivalent to a 4000 ppm solution) are used. A master plate of assembled molecules contains 15 μL per well. To this plate, 135 μL of a 90:10 water/acetone mixture is added to each well. A robot (Biomek® NXP Laboratory Automation Workstation) is programmed to dispense 15 μL aspirations from the master plate into an empty 96-well shallow plate (“daughter” plate). There are 6 reps (“daughter” plates) created per master. The created “daughter” plates are then immediately infested with YFM larvae.
The day before plates are to be treated, mosquito eggs are placed in Millipore water containing liver powder to begin hatching (4 g. into 400 mL). After the “daughter” plates are created using the robot, they are infested with 220 μL of the liver powder/larval mosquito mixture (about 1 day-old larvae). After plates are infested with mosquito larvae, a non-evaporative lid is used to cover the plate to reduce drying. Plates are held at room temperature for 3 days prior to grading. After 3 days, each well is observed and scored based on mortality.

[3] = system: Cabbage Looper (Trichloplusia Ni, TRIPNI); experiment: Insecticidal test for cabbage looper (CL), 128-well diet tray assay; conditions: Trichoplusia ni, 168 h, read-out: CL % Control (or Mortality) rating
Procedure: Insecticidal Test for Cabbage Looper (Trichloplusia Ni, TRIPNI) (“CL”)
as §1, with “cabbage looper (CL; Trichloplusia ni:” for “beet armyworm (BAW; Spodoptera exigua:”, “CL” for “BAW”

## Cc1ccc(C(C)C)c(N2C(=O)CS/C2=N\C(=O)NCCc2ccc(NC(=O)Oc3ccc(OC(F)(F)F)cc3)cc2)c1 [Compound A53, 4-(trifluoromethoxy)phenyl (Z)-(4-(2-(3-(3-(2-isopropyl-5-methylphenyl)-4-oxothiazolidin-2-ylidene)ureido)ethyl)phenyl)carbamate]
[1]
  mortality at 50 µg/cm2: 50 to 100%
[2]
  YFM % Control (or Mortality) rating: A (80-100)
[3]
  mortality at 50 µg/cm2: 50 to 100%

## CCC(C)Oc1ccc(C)cc1N1C(=O)CS/C1=N\C(=O)NC(C)Cc1ccc(NC(=O)Nc2ccc(C(F)(F)F)cc2)cc1 (stereo not drawn) [Compound A30, (Z)-1-(4-(2-(3-(3-(2-(sec-Butoxy)-5-methylphenyl)-4-oxothiazolidin-2-ylidene)ureido)propyl)phenyl)-3-(4-(trifluoromethyl)phenyl)urea]
[1]
  mortality at 50 µg/cm2: 50 to 100%
[2]
  YFM % Control (or Mortality) rating: B (More than 0-Less than 80)
[3]
  mortality at 50 µg/cm2: 50 to 100%

## Cc1ccc(C(C)C)c(N2C(=O)CS/C2=N\C(=O)NCCc2ccc(NCC(=O)c3ccc(OC(F)(F)F)cc3)cc2)c1 [Compound A1, (Z)-1-(3-(2-isopropyl-5-methylphenyl)-4-oxothiazolidin-2-ylidene)-3-(4-((2-oxo-2-(4-(trifluoromethoxy)phenyl)ethyl)amino)phenethyl)urea]
[1]
  mortality at 50 µg/cm2: 50 to 100%
[2]
  YFM % Control (or Mortality) rating: A (80-100)
[3]
  mortality at 50 µg/cm2: 50 to 100%

## COc1ccc(N2C(=O)CS/C2=N\C(=O)NCCc2ccc(NC(=O)Nc3ccc(C(F)(F)F)cc3)cc2)c(C)c1 [Compound A10, (Z)-1-(4-(2-(3-(3-(4-Methoxy-2-methylphenyl)-4-oxothiazolidin-2-ylidene)ureido)ethyl)phenyl)-3-(4-(trifluoromethyl)phenyl)urea]
[1]
  mortality at 50 µg/cm2: 50 to 100%
[2]
  YFM % Control (or Mortality) rating: A (80-100)
[3]
  mortality at 50 µg/cm2: 50 to 100%

## Cc1ccc(C(C)C)c(N2C(=O)CS/C2=N\C(=O)NC(C)Cc2ccc(NC(=O)Nc3ccc(C(F)(F)F)cc3)cc2)c1 (stereo not drawn) [Compound A27, (Z)-1-(4-(2-(3-(3-(2-Isopropyl-5-methylphenyl)-4-oxothiazolidin-2-ylidene)ureido)propyl)phenyl)-3-(4-(trifluoromethyl)phenyl)urea]
[1]
  mortality at 50 µg/cm2: 50 to 100%
[2]
  YFM % Control (or Mortality) rating: A (80-100)
[3]
  mortality at 50 µg/cm2: 50 to 100%

## Cc1ccc(C(C)C)c(N2C(=O)CS/C2=N\C(=O)NCCc2ccc(NC(=O)Nc3ccc(C(F)(F)F)cc3)cc2)c1 [Compound A9, (Z)-1-(4-(2-(3-(3-(2-isopropyl-5-methylphenyl)-4-oxothiazolidin-2-ylidene)ureido)ethyl)phenyl)-3-(4-(trifluoromethyl)phenyl)urea]
[1]
  mortality at 50 µg/cm2: 50 to 100%
[2]
  YFM % Control (or Mortality) rating: A (80-100)
[3]
  mortality at 50 µg/cm2: 50 to 100%

## CC(Cc1ccc(NC(=O)Nc2ccc(C(F)(F)F)cc2)cc1)NC(=O)/N=C1\SCC(=O)N1c1ccccc1C(C)C (stereo not drawn) [Compound A28, (Z)-1-(4-(2-(3-(3-(2-Isopropylphenyl)-4-oxothiazolidin-2-ylidene)ureido)propyl)phenyl)-3-(4-(trifluoromethyl)phenyl)urea]
[1]
  mortality at 50 µg/cm2: 50 to 100%
[2]
  YFM % Control (or Mortality) rating: A (80-100)
[3]
  mortality at 50 µg/cm2: 50 to 100%

## CC(C)c1ccc(Cl)cc1N1C(=O)CS/C1=N\C(=O)NCCc1ccc(NC(=O)Nc2ccc(C(F)(F)F)cc2)cc1 [Compound A13, (Z)-1-(4-(2-(3-(3-(5-Chloro-2-isopropylphenyl)-4-oxothiazolidin-2-ylidene)ureido)ethyl)phenyl)-3-(4-(trifluoromethyl)phenyl)urea]
[1]
  mortality at 50 µg/cm2: 50 to 100%
[2]
  YFM % Control (or Mortality) rating: A (80-100)
[3]
  mortality at 50 µg/cm2: 50 to 100%

## Cc1ccc(C(C)C)c(N2C(=O)CS/C2=N\C(=O)Nc2ccc(NC(=S)Nc3ccc(OC(F)(F)F)cc3)cc2)c1 [Compound A45, (Z)-1-(3-(2-isopropyl-5-methylphenyl)-4-oxothiazolidin-2-ylidene)-3-(4-(3-(4-(trifluoromethoxy)phenyl)thioureido)phenyl)urea]
[1]
  mortality at 50 µg/cm2: 50 to 100%
[2]
  YFM % Control (or Mortality) rating: A (80-100)
[3]
  mortality at 50 µg/cm2: 50 to 100%

## Cc1ccc(C(C)C)c(N2C(=O)CS/C2=N\C(=O)NCCc2ccc(NC(=O)Nc3ccc(OC(F)(F)F)cc3)cc2)c1 [Compound A8, (Z)-1-(3-(2-isopropyl-5-methylphenyl)-4-oxothiazolidin-2-ylidene)-3-(4-(3-(4-(trifluoromethoxy)phenyl)ureido)phenethyl)urea]
[1]
  mortality at 50 µg/cm2: 50 to 100%
[2]
  YFM % Control (or Mortality) rating: A (80-100)
[3]
  mortality at 50 µg/cm2: 50 to 100%

## CCc1cccc(C)c1N1C(=O)CS/C1=N\C(=O)NCCc1ccc(NC(=O)Nc2ccc(OC(F)(F)F)cc2)cc1 [Compound A23, (Z)-1-(4-(2-(3-(3-(2-Ethyl-6-methylphenyl)-4-oxothiazolidin-2-ylidene)ureido)ethyl)phenyl)-3-(4-(trifluoromethoxy)phenyl)urea]
[1]
  mortality at 50 µg/cm2: 50 to 100%
[2]
  YFM % Control (or Mortality) rating: A (80-100)
[3]
  mortality at 50 µg/cm2: 50 to 100%

## CC(Cc1ccc(NC(=O)Nc2ccc(C(F)(F)F)cc2)cc1)NC(=O)/N=C1\SCC(=O)N1c1cc(Cl)ccc1C(C)C (stereo not drawn) [Compound A29, (Z)-1-(4-(2-(3-(3-(5-Chloro-2-isopropylphenyl)-4-oxothiazolidin-2-ylidene)ureido)propyl)phenyl)-3-(4-(trifluoromethyl)phenyl)urea]
[1]
  mortality at 50 µg/cm2: 50 to 100%
[2]
  YFM % Control (or Mortality) rating: A (80-100)
[3]
  mortality at 50 µg/cm2: 50 to 100%

## Cc1ccc(C(C)C)c(N2C(=O)CS/C2=N\C(=O)Nc2ccc(CNC(=O)Nc3ccc(OC(F)(F)F)cc3)cc2)c1 [Compound A43, (Z)-1-(4-(3-(3-(2-isopropyl-5-methylphenyl)-4-oxothiazolidin-2-ylidene)ureido)benzyl)-3-(4-(trifluoromethoxy)phenyl)urea]
[1]
  mortality at 50 µg/cm2: 50 to 100%
[2]
  YFM % Control (or Mortality) rating: A (80-100)
[3]
  mortality at 50 µg/cm2: 50 to 100%

## Cc1ccc(C(C)C)c(N2C(=O)CS/C2=N\C(=O)Nc2ccc(CCOC(=O)Nc3ccc(OC(F)(F)F)cc3)cc2)c1 [Compound A52, (Z)-4-(3-(3-(2-isopropyl-5-methylphenyl)-4-oxothiazolidin-2-ylidene)ureido)phenethyl (4-(trifluoromethoxy)phenyl)carbamate]
[1]
  mortality at 50 µg/cm2: 50 to 100%
[2]
  YFM % Control (or Mortality) rating: A (80-100)
[3]
  mortality at 50 µg/cm2: 50 to 100%

## Cc1ccc(C(C)C)c(N2C(=O)CS/C2=N\C(=O)Nc2ccc(N/N=C/c3ccc(OC(F)(F)F)cc3)cc2)c1 [Compound A55, 1-((Z)-3-(2-Isopropyl-5-methylphenyl)-4-oxothiazolidin-2-ylidene)-3-(4-(2-((E)-4-(trifluoromethoxy)benzylidene)hydrazinyl)phenyl)urea]
[1]
  mortality at 50 µg/cm2: 50 to 100%
[2]
  YFM % Control (or Mortality) rating: A (80-100)
[3]
  mortality at 50 µg/cm2: 50 to 100%

## COc1ccc(N2C(=O)CS/C2=N\C(=O)NCCc2ccc(NC(=O)Nc3ccc(OC(F)(F)F)cc3)cc2)c(C)c1 [Compound A21, (Z)-1-(4-(2-(3-(3-(4-methoxy-2-methylphenyl)-4-oxothiazolidin-2-ylidene)ureido)ethyl)phenyl)-3-(4-(trifluoromethoxy)phenyl)urea]
[1]
  mortality at 50 µg/cm2: 50 to 100%
[2]
  YFM % Control (or Mortality) rating: A (80-100)
[3]
  mortality at 50 µg/cm2: 50 to 100%

## CCCc1ccc(OC)cc1N1C(=O)CS/C1=N\C(=O)NC(C)Cc1ccc(NC(=O)Nc2ccc(OC(F)(F)F)cc2)cc1 (stereo not drawn) [Compound A37, (Z)-1-(4-(2-(3-(3-(5-Methoxy-2-propylphenyl)-4-oxothiazolidin-2-ylidene)ureido)propyl)phenyl)-3-(4-(trifluoromethoxy)phenyl)urea]
[1]
  mortality at 50 µg/cm2: 50 to 100%
[2]
  YFM % Control (or Mortality) rating: B (More than 0-Less than 80)
[3]
  mortality at 50 µg/cm2: 50 to 100%

## O=C(/N=C1\SCC(=O)N1c1cccc2c1CCCC2)NCCc1ccc(NC(=O)Nc2ccc(OC(F)(F)F)cc2)cc1 [Compound A24, (Z)-1-(4-(2-(3-(4-Oxo-3-(5,6,7,8-tetrahydronaphthalen-1-yl)thiazolidin-2-ylidene)ureido)ethyl)phenyl)-3-(4-(trifluoromethoxy)phenyl)urea]
[1]
  mortality at 50 µg/cm2: 50 to 100%
[2]
  YFM % Control (or Mortality) rating: B (More than 0-Less than 80)
[3]
  mortality at 50 µg/cm2: 50 to 100%
